Assay results published in US10351546B2, “Pyridin-3-yl acetic acid derivatives as inhibitors of human immunodeficiency virus replication” (priority 2015, dated 2019).

What follows are molecules tested on NL-RLuc virus (assay: Inhibition of HIV replication (NL-RLuc luciferase reporter virus in MT-2 cells)). Conditions: Human immunodeficiency virus 1, MT2, 120 h, read-out: Activity.
Type: cell-based
Method in brief: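 The read-out is Renilla luciferase expressed by replication-competent NL-RLuc (nef partly replaced), measured 5 days after infection of MT-2 cells grown with compound dilutions in 10% FBS RPMI. Median effect equation gives EC50 from ≥2 runs; A ≤100 nM, B 100 nM–1 uM, C >1 uM.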

| SMILES | EC50 [µM] |
| --- | --- |
| Cc1nc(COCCN2CCOCC2)c(-c2ccc(OCCc3ccc(F)cc3)cc2)c(N2CCC(C)(C)CC2)c1[C@H](OC(C)(C)C)C(=O)O [Example 24, (S)-2-(tert-Butoxy)-2-(4-(4,4-dimethylpiperidin-1-yl)-5-(4-(4-fluorophenethoxy)phenyl)-2-methyl-6-((2-morpholinoethoxy)methyl)pyridin-3-yl)acetic acid] | < 0.1 |
| Cc1nc(CC2CCC(C)(C)CC2)c(-c2ccc(OCCc3ccc(F)cc3)cc2)c(N2CCC(C)(C)CC2)c1[C@H](OC(C)(C)C)C(=O)O [Example 173, (S)-2-(tert-Butoxy)-2-(6-((4,4-dimethylcyclohexyl)methyl)-4-(4,4-dimethylpiperidin-1-yl)-5-(4-(4-fluorophenethoxy)phenyl)-2-methylpyridin-3-yl)acetic acid] | < 0.1 |
| Cc1nc(NS(C)(=O)=O)c(-c2ccc(OCCc3ccc(F)cc3)cc2)c(N2CCC(C)(C)CC2)c1[C@H](OC(C)(C)C)C(=O)O [Example 48, (S)-2-(tert-Butoxy)-2-(4-(4,4-dimethylpiperidin-1-yl)-5-(4-(4-fluorophenethoxy)phenyl)-2-methyl-6-(methylsulfonamido)pyridin-3-yl)acetic acid] | < 0.1 |
| Cc1nc(CN2CCC(O)CC2)c(-c2ccc(OCCc3ccc(F)cc3)cc2)c(N2CCC(C)(C)CC2)c1[C@H](OC(C)(C)C)C(=O)O [Example 87, (S)-2-(tert-Butoxy)-2-(4-(4,4-dimethylpiperidin-1-yl)-5-(4-(4-fluorophenethoxy)phenyl)-6-((4-hydroxypiperidin-1-yl)methyl)-2-methylpyridin-3-yl)acetic acid] | < 0.1 |
| Cc1cc(F)ccc1CN1CCc2cc(-c3c(CN4[C@@H]5CC[C@H]4CN(C)C5)nc(C)c([C@H](OC(C)(C)C)C(=O)O)c3N3CCC(C)(C)CC3)ccc2C1 [Example 138, (S)-2-(tert-Butoxy)-2-(4-(4,4-dimethylpiperidin-1-yl)-5-(2-(4-fluoro-2-methylbenzyl)-1,2,3,4-tetrahydroisoquinolin-6-yl)-2-methyl-6-(((1R,5S)-3-methyl-3,8-diazabicyclo[3.2.1]octan-8-yl)methyl)pyridin-3-yl)acetic acid] | < 0.1 |
| Cc1nc(COc2cccc(Cl)c2)c(-c2ccc(OCCc3ccc(F)cc3)cc2)c(N2CCC(C)(C)CC2)c1[C@H](OC(C)(C)C)C(=O)O [Example 15, (S)-2-(tert-Butoxy)-2-(6-((3-chlorophenoxy)methyl)-4-(4,4-dimethylpiperidin-1-yl)-5-(4-(4-fluorophenethoxy)phenyl)-2-methylpyridin-3-yl)acetic acid] | < 0.1 |
| COc1ccc(Cc2nc(C)c([C@H](OC(C)(C)C)C(=O)O)c(N3CCC(C)(C)CC3)c2-c2ccc(OCCc3ccc(F)cc3)cc2)cc1 [Example 60, (S)-2-(tert-Butoxy)-2-(4-(4,4-dimethylpiperidin-1-yl)-5-(4-(4-fluorophenethoxy)phenyl)-6-(4-methoxybenzyl)-2-methylpyridin-3-yl)acetic acid] | < 0.1 |
| Cc1cc(F)ccc1CN1CCc2cc(-c3c(CNCc4cccnc4)nc(C)c([C@H](OC(C)(C)C)C(=O)O)c3N3CCC(C)(C)CC3)ccc2C1 [Example 126, (S)-2-(tert-Butoxy)-2-(4-(4,4-dimethylpiperidin-1-yl)-5-(2-(4-fluoro-2-methylbenzyl)-1,2,3,4-tetrahydroisoquinolin-6-yl)-2-methyl-6-(((pyridin-3-ylmethyl)amino)methyl)pyridin-3-yl)acetic acid] | < 0.1 |
| CCOCCOCc1nc(C)c([C@H](OC(C)(C)C)C(=O)O)c(N2CCC(C)(C)CC2)c1C [Example 36, (S)-2-(tert-Butoxy)-2-(4-(4,4-dimethylpiperidin-1-yl)-6-((2-ethoxyethoxy)methyl)-2,5-dimethylpyridin-3-yl)acetic acid] | < 0.1 |
| C#Cc1nc(C)c([C@H](OC(C)(C)C)C(=O)O)c(N2CCC(C)(C)CC2)c1-c1ccc(OCCc2ccc(F)cc2)cc1 [Example 161, (S)-2-(tert-Butoxy)-2-(4-(4,4-dimethylpiperidin-1-yl)-6-ethynyl-5-(4-(4-fluorophenethoxy)phenyl)-2-methylpyridin-3-yl)acetic acid] | < 0.1 |
| CCCCN(C)C(=O)c1nc(C)c([C@H](OC(C)(C)C)C(=O)O)c(N2CCC(C)(C)CC2)c1-c1ccc(OCCc2ccc(F)cc2)cc1 [Example 43, (S)-2-(tert-Butoxy)-2-(6-(butyl(methyl)carbamoyl)-4-(4,4-dimethylpiperidin-1-yl)-5-(4-(4-fluorophenethoxy)phenyl)-2-methylpyridin-3-yl)acetic acid] | < 0.1 |
| C=Cc1nc(C)c([C@H](OC(C)(C)C)C(=O)O)c(N2CCC(C)(C)CC2)c1-c1ccc(OCCc2ccc(F)cc2)cc1 [Example 61, (S)-2-(tert-Butoxy)-2-(4-(4,4-dimethylpiperidin-1-yl)-5-(4-(4-fluorophenethoxy)phenyl)-2-methyl-6-vinylpyridin-3-yl)acetic acid] | < 0.1 |
| Cc1nc(CNC2COC2)c(-c2ccc(OCCc3ccc(F)cc3)cc2)c(N2CCC(C)(C)CC2)c1[C@H](OC(C)(C)C)C(=O)O [Example 77, (S)-2-(tert-Butoxy)-2-(4-(4,4-dimethylpiperidin-1-yl)-5-(4-(4-fluorophenethoxy)phenyl)-2-methyl-6-((oxetan-3-ylamino)methyl)pyridin-3-yl)acetic acid] | < 0.1 |
| Cc1nc(CN2CCC(C)(C)CC2)c(-c2ccc(OCCc3ccc(F)cc3)cc2)c(N2CCC(C)(C)CC2)c1[C@H](OC(C)(C)C)C(=O)O [Example 88, (S)-2-(tert-Butoxy)-2-(4-(4,4-dimethylpiperidin-1-yl)-6-((4,4-dimethylpiperidin-1-yl)methyl)-5-(4-(4-fluorophenethoxy)phenyl)-2-methylpyridin-3-yl)acetic acid] | < 0.1 |
| Cc1nc(CN2CC(C)OC(C)C2)c(-c2ccc(OCCc3ccc(F)cc3)cc2)c(N2CCC(C)(C)CC2)c1[C@H](OC(C)(C)C)C(=O)O (stereo partly drawn) [Example 92, (2S)-2-(tert-Butoxy)-2-(6-((2,6-dimethylmorpholino)methyl)-4-(4,4-dimethylpiperidin-1-yl)-5-(4-(4-fluorophenethoxy)phenyl)-2-methylpyridin-3-yl)acetic acid] | < 0.1 |
| Cc1ncc([C@H](OC(C)(C)C)C(=O)O)c(N2CCC(C)(C)CC2)c1-c1ccc(OCCc2ccc(F)cc2)cc1 [Example 182, (S)-2-(tert-Butoxy)-2-(4-(4,4-dimethylpiperidin-1-yl)-5-(4-(4-fluorophenethoxy)phenyl)-6-methylpyridin-3-yl)acetic acid] | < 0.1 |
| Cc1nc(CNCCO)c(-c2ccc(OCCc3ccc(F)cc3)cc2)c(N2CCC(C)(C)CC2)c1[C@H](OC(C)(C)C)C(=O)O [Example 69, (S)-2-(tert-Butoxy)-2-(4-(4,4-dimethylpiperidin-1-yl)-5-(4-(4-fluorophenethoxy)phenyl)-6-(((2-hydroxyethyl)amino)methyl)-2-methylpyridin-3-yl)acetic acid] | < 0.1 |
| Cc1nc(CNC(=O)C(=O)N(C)C)c(-c2ccc(OCCc3ccc(F)cc3)cc2)c(N2CCC(C)(C)CC2)c1[C@H](OC(C)(C)C)C(=O)O [Example 105, (S)-2-(tert-Butoxy)-2-(6-((2-(dimethylamino)-2-oxoacetamido)methyl)-4-(4,4-dimethylpiperidin-1-yl)-5-(4-(4-fluorophenethoxy)phenyl)-2-methylpyridin-3-yl)acetic acid] | < 0.1 |
| Cc1nc(COCC2CC(F)(F)C2)c(-c2ccc(OCCc3ccc(F)cc3)cc2)c(N2CCC(C)(C)CC2)c1[C@H](OC(C)(C)C)C(=O)O [Example 30, (S)-2-(tert-Butoxy)-2-(6-(((3,3-difluorocyclobutyl)methoxy)methyl)-4-(4,4-dimethylpiperidin-1-yl)-5-(4-(4-fluorophenethoxy)phenyl)-2-methylpyridin-3-yl)acetic acid] | < 0.1 |
| Cc1nc(CN2CCC(F)(F)CC2)c(-c2ccc(OCCc3ccc(F)cc3)cc2)c(N2CCC(C)(C)CC2)c1[C@H](OC(C)(C)C)C(=O)O [Example 86, (S)-2-(tert-Butoxy)-2-(6-((4,4-difluoropiperidin-1-yl)methyl)-4-(4,4-dimethylpiperidin-1-yl)-5-(4-(4-fluorophenethoxy)phenyl)-2-methylpyridin-3-yl)acetic acid] | < 0.1 |
| CC(=O)NCc1nc(C)c([C@H](OC(C)(C)C)C(=O)O)c(N2CCC(C)(C)CC2)c1-c1ccc2c(c1)CCN(Cc1ccc(F)cc1C)C2 [Example 140, (S)-2-(6-(Acetamidomethyl)-4-(4,4-dimethylpiperidin-1-yl)-5-(2-(4-fluoro-2-methylbenzyl)-1,2,3,4-tetrahydroisoquinolin-6-yl)-2-methylpyridin-3-yl)-2-(tert-butoxy)acetic acid] | < 0.1 |
| Cc1nc(CN(C)Cc2ccccc2)c(-c2ccc(OCCc3ccc(F)cc3)cc2)c(N2CCC(C)(C)CC2)c1[C@H](OC(C)(C)C)C(=O)O [Example 97, (S)-2-(6-((Benzyl(methyl)amino)methyl)-4-(4,4-dimethylpiperidin-1-yl)-5-(4-(4-fluorophenethoxy)phenyl)-2-methylpyridin-3-yl)-2-(tert-butoxy)acetic acid] | < 0.1 |
| Cc1cc(N2CCc3cc(-c4c(N)nc(C)c([C@H](OC(C)(C)C)C(=O)O)c4N4CCC(C)(C)CC4)ccc3C2)ncn1 [Example 148, (S)-2-(6-Amino-4-(4,4-dimethylpiperidin-1-yl)-2-methyl-5-(2-(6-methylpyrimidin-4-yl)-1,2,3,4-tetrahydroisoquinolin-6-yl)pyridin-3-yl)-2-(tert-butoxy)acetic acid] | < 0.1 |

Same assay, conditions: Human immunodeficiency virus 1, MT2, 120 h, read-out: EC50 μM

| SMILES | EC50 [µM] |
| --- | --- |
| Cc1nc(COCCN2CCOCC2)c(-c2ccc(OCCc3ccc(F)cc3)cc2)c(N2CCC(C)(C)CC2)c1[C@H](OC(C)(C)C)C(=O)O [Example 24, (S)-2-(tert-Butoxy)-2-(4-(4,4-dimethylpiperidin-1-yl)-5-(4-(4-fluorophenethoxy)phenyl)-2-methyl-6-((2-morpholinoethoxy)methyl)pyridin-3-yl)acetic acid] | 0.001 |
| Cc1nc(CC2CCC(C)(C)CC2)c(-c2ccc(OCCc3ccc(F)cc3)cc2)c(N2CCC(C)(C)CC2)c1[C@H](OC(C)(C)C)C(=O)O [Example 173, (S)-2-(tert-Butoxy)-2-(6-((4,4-dimethylcyclohexyl)methyl)-4-(4,4-dimethylpiperidin-1-yl)-5-(4-(4-fluorophenethoxy)phenyl)-2-methylpyridin-3-yl)acetic acid] | 0.035 |
| Cc1nc(COc2cccc(Cl)c2)c(-c2ccc(OCCc3ccc(F)cc3)cc2)c(N2CCC(C)(C)CC2)c1[C@H](OC(C)(C)C)C(=O)O [Example 15, (S)-2-(tert-Butoxy)-2-(6-((3-chlorophenoxy)methyl)-4-(4,4-dimethylpiperidin-1-yl)-5-(4-(4-fluorophenethoxy)phenyl)-2-methylpyridin-3-yl)acetic acid] | 0.051 |
| Cc1nc(CNC2COC2)c(-c2ccc(OCCc3ccc(F)cc3)cc2)c(N2CCC(C)(C)CC2)c1[C@H](OC(C)(C)C)C(=O)O [Example 77, (S)-2-(tert-Butoxy)-2-(4-(4,4-dimethylpiperidin-1-yl)-5-(4-(4-fluorophenethoxy)phenyl)-2-methyl-6-((oxetan-3-ylamino)methyl)pyridin-3-yl)acetic acid] | 0.067 |

Same assay, conditions: read-out: Activity; NL-RLuc virus in MT-2 cells, 5 days of incubation, luciferase readout

| SMILES | EC50 [µM] |
| --- | --- |
| Cc1cc(F)ccc1CN1CCc2cc(-c3c(C(C)N(C)CC4CCOCC4)nc(C)c([C@H](OC(C)(C)C)C(=O)O)c3N3CCC(C)(C)CC3)ccc2C1 (single isomer, unassigned) [Example 151] | < 0.1 |
